Laboratory results published in patent publication US20260083704A1, “LXR MODULATORS WITH BICYCLIC CORE MOIETY FOR TREATING DYSLIPIDEMIAS” (OrsoBio, Inc., priority 2022, published 2026).

Legend:
[1] = target: T1, GST-LXRβ ligand-binding domain (Homo sapiens, UniProt P55055); experiment: TR-FRETβ activity assay (NCoA3 coactivator peptide recruitment); format: biochemical; settings: 1 μM 24(S)-25-epoxycholesterol prestimulation
T1 construct: amino acids 156-461; NP009052; made in house; host or cells: E. coli
T1 sequence (P55055 156-460 limits assumed): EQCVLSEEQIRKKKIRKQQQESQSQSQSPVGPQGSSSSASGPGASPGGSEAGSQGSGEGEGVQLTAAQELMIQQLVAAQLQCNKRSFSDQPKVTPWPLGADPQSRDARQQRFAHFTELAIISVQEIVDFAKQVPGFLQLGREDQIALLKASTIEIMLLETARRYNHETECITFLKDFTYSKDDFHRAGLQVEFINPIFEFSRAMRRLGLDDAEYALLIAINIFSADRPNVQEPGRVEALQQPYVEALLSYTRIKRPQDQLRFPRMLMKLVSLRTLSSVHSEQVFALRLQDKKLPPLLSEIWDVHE
Summary of the method: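 Inverse-agonist format, with LXR prestimulated by 1 μM 24(S)-25-epoxycholesterol in pH 6.8 Tris/HCl, 240 mM KCl, BSA and Triton. Ten concentrations from 50 μM to 0.002 μM were equilibrated 1 h at 4° C with 76 nM GST-LXRβ LBD and 400 nM biotin-NCoA3 peptide. Peptide recruitment detected by 665/615 nm TR-FRET.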

LXRβ = target: T2, LXRβ (Homo sapiens, UniProt P55055); experiment: LXR Gal4 reporter transient transfection assay (mammalian two-hybrid, HEK293), LXRβ; format: cell-based; parameters: LXRβ (amino acids 156-461); expressed in transfected cells; host or cells: HEK293; settings: full length (FL) LXRβ, HEK293; read-out: FL-M2H Gal4β
T2 sequence (P55055 1-460): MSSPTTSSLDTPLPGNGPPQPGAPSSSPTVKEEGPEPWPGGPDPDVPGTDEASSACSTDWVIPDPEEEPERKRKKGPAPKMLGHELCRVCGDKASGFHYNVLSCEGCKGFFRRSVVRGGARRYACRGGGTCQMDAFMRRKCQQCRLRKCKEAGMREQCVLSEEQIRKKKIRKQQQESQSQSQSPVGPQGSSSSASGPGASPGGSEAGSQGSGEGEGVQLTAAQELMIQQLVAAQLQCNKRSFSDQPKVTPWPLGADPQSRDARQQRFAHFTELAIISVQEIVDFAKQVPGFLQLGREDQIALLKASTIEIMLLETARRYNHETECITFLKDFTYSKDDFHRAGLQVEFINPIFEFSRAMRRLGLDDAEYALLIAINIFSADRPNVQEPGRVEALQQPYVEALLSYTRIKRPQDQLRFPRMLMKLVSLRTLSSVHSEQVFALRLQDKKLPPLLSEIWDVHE
Summary of the method: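 Mammalian two-hybrid read-out of LXR–coactivator (SRC1) or corepressor (NCoR) interaction: firefly luciferase under GAL4 response elements, normalised via Renilla co-transfection. LXRα/β full-length or LBD fusions expressed transiently in HEK293; compounds (final DMSO ≤0.2%) given 4 h after transfection for 16 h before lysis.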

| SMILES | EC50 [1] | EC50 (LXRβ) |
| --- | --- | --- |
| Cc1ccc(S(=O)(=O)n2c(-c3cccc(-c4ccc(C(=O)O)cc4Cl)c3)c(-c3c(C)cccc3C#N)c3cc(F)ccc32)cc1 [11/6] | < 100 nM | < 100 nM |
| N#Cc1sccc1-c1c(-c2cccc(-c3cc(F)c(C(=O)O)cc3Cl)c2)n(S(=O)(=O)c2ccc(CF)cc2)c2ccc(F)cc12 [11/7] | < 100 nM | < 100 nM |
| N#Cc1sccc1-c1c(-c2cccc(-c3cc(F)c(C(=O)O)cc3Cl)c2)n(S(=O)(=O)c2ccc(C(F)F)cc2)c2ccc(F)cc12 [11/8] | < 100 nM | < 100 nM |
| N#Cc1scnc1-c1c(-c2cccc(-c3cc(F)c(C(=O)O)cc3Cl)c2)n(S(=O)(=O)c2ccc(C(F)F)cc2)c2ccc(F)cc12 [11/9] | < 100 nM | < 100 nM |
| N#Cc1ccncc1-c1c(-c2cccc(-c3cc(F)c(C(=O)O)cc3Cl)c2)n(S(=O)(=O)c2ccc(C(F)F)cc2)c2ccc(F)cc12 [11/10] | < 100 nM | < 100 nM |
| Cc1cccc(C)c1-c1c(-c2cccc(-c3ccc(C(=O)O)cc3Cl)c2)n(S(=O)(=O)c2ccc(C(F)F)cc2)c2ccc(F)cc12 [11/14] | < 100 nM | < 100 nM |
| O=C(O)c1ccc(-c2cccc(-c3c(-c4c(C(F)F)cccc4C(F)F)c4cc(F)ccc4n3S(=O)(=O)c3ccc(C(F)F)cc3)c2)c(Cl)c1 [11/15] | < 100 nM | < 100 nM |
| N#Cc1sccc1-c1c(-c2cccc(-c3ccc(C(=O)O)cc3Cl)c2)n(S(=O)(=O)c2ccc(F)cc2)c2ccc(F)cc12 [11/18] | 100 to 1000 nM | < 100 nM |
| Cc1ccc(S(=O)(=O)n2c(-c3cccc(-c4ccc(C(=O)O)cc4Cl)c3)c(-c3ccsc3C#N)c3cc(F)ccc32)cc1F [11/19] | 100 to 1000 nM | < 100 nM |
| N#Cc1ccc(S(=O)(=O)n2c(-c3cccc(-c4ccc(C(=O)O)cc4Cl)c3)c(-c3ccsc3C#N)c3cc(F)ccc32)cc1 [11/20] | 100 to 1000 nM | < 100 nM |
| O=C(O)c1ccc(-c2cccc(-c3c(-c4ccsc4C(F)F)c4cc(F)ccc4n3S(=O)(=O)c3ccc(Cl)cc3)c2)c(Cl)c1 [11/21] | < 100 nM | < 100 nM |
| O=C(O)c1ccc(-c2cccc(-c3c(-c4ccsc4C(F)(F)F)c4cc(F)ccc4n3S(=O)(=O)c3ccc(C(F)F)cc3)c2)c(Cl)c1 [11/22] | < 100 nM | < 100 nM |
| Cc1n[nH]c(C)c1-c1c(-c2cccc(-c3ccc(C(=O)O)cc3Cl)c2)n(S(=O)(=O)c2ccc(C(F)F)cc2)c2ccc(F)cc12 [11/24] | 100 to 1000 nM | 100 to 1000 nM |
| O=C(O)c1ccc(-c2cccc(-c3c(-c4cn[nH]c4C(F)(F)F)c4cc(F)ccc4n3S(=O)(=O)c3ccc(C(F)F)cc3)c2)c(Cl)c1 [11/25] | 100 to 1000 nM | < 100 nM |
| N#Cc1ccccc1-c1c(-c2cccc(-c3ccc(C(=O)O)c4c3OCO4)c2)n(S(=O)(=O)c2ccc(C(F)F)cc2)c2ccc(F)cc12 [11/28] | < 100 nM | < 100 nM |
| COc1cc(C(=O)O)ccc1-c1cccc(-c2c(-c3ccccc3C#N)c3cc(F)ccc3n2S(=O)(=O)c2ccc(C(F)F)cc2)c1 [11/29] | < 100 nM | < 100 nM |
| N#Cc1cc(C(=O)O)ccc1-c1cccc(-c2c(-c3ccccc3C#N)c3cc(F)ccc3n2S(=O)(=O)c2ccc(C(F)F)cc2)c1 [11/30] | < 100 nM | < 100 nM |
| N#Cc1ccccc1-c1c(-c2cccc(-c3ccc(C(=O)O)cc3F)c2)n(S(=O)(=O)c2ccc(C(F)F)cc2)c2ccc(F)cc12 [11/31] | < 100 nM | < 100 nM |
| N#Cc1ccccc1-c1c(-c2cccc(-c3ccc(C(=O)O)c(O)c3Cl)c2)n(S(=O)(=O)c2ccc(C(F)F)cc2)c2ccc(F)cc12 [11/32] | < 100 nM | < 100 nM |
| N#Cc1cccc(F)c1-c1c(-c2cccc(-c3ccc(C(=O)O)cc3Cl)c2)n(S(=O)(=O)c2ccc(C(F)F)cc2)c2ccc(F)cc12 [11/34] | < 100 nM | < 100 nM |
| Cc1cccc(C(F)F)c1-c1c(-c2cccc(-c3ccc(C(=O)O)cc3Cl)c2)n(S(=O)(=O)c2ccc(C(F)F)cc2)c2ccc(F)cc12 [11/38] | < 100 nM | < 100 nM |

| SMILES | EC50 [1] | EC50 (LXRβ) |
| --- | --- | --- |
| COc1cccnc1-c1c(-c2cccc(-c3ccc(C(=O)O)cc3Cl)c2)n(S(=O)(=O)c2ccc(C(F)F)cc2)c2ccc(F)cc12 [11/40] | 100 to 1000 nM | < 100 nM |
| O=C(O)c1ccc(-c2cccc(-c3c(-c4ncccc4OC(F)F)c4cc(F)ccc4n3S(=O)(=O)c3ccc(C(F)F)cc3)c2)c(Cl)c1 [11/41] | < 100 nM | < 100 nM |
| N#CC1=C(c2c(-c3cccc(-c4ccc(C(=O)O)cc4Cl)c3)n(S(=O)(=O)c3ccc(C(F)F)cc3)c3ccc(F)cc23)CCCC1 [11/42] | > 10000 nM | 100 to 1000 nM |
| O=C(O)c1ccc(-c2cccc(-c3c(-c4cccc5nncn45)c4cc(F)ccc4n3S(=O)(=O)c3ccc(C(F)F)cc3)c2)c(Cl)c1 [11/43] | 100 to 1000 nM | 100 to 1000 nM |
| O=C(O)c1ccc(-c2cccc(-c3c(-c4cccc5c4OCO5)c4cc(F)ccc4n3S(=O)(=O)c3ccc(C(F)F)cc3)c2)c(Cl)c1 [11/44] | < 100 nM | < 100 nM |
| COc1cc(-c2c(-c3cccc(-c4ccc(C(=O)O)cc4Cl)c3)n(S(=O)(=O)c3ccc(C(F)F)cc3)c3ccc(F)cc23)c2c(C#N)cnn2c1 [11/46] | < 100 nM | < 100 nM |
| Cn1cccc(-c2c(-c3cccc(-c4ccc(C(=O)O)cc4Cl)c3)n(S(=O)(=O)c3ccc(C(F)F)cc3)c3ccc(F)cc23)c1=O [11/47] | 100 to 1000 nM | 100 to 1000 nM |
| N#Cc1cccc(C#N)c1-c1c(-c2cccc(-c3ccc(C(=O)O)c(F)c3F)c2)n(S(=O)(=O)c2ccc(C(F)F)cc2)c2ccc(F)cc12 [11/52] | < 100 nM | < 100 nM |
| N#Cc1cccc(C#N)c1-c1c(-c2cccc(-c3c(F)c(F)c(C(=O)O)c(F)c3F)c2)n(S(=O)(=O)c2ccc(C(F)F)cc2)c2ccc(F)cc12 [11/54] | < 100 nM | < 100 nM |
| N#Cc1cccc(C#N)c1-c1c(-c2cccc(-c3ccc(C(=O)O)cc3Cl)c2)n(S(=O)(=O)c2ccc(Cl)cc2)c2ccc(F)cc12 [11/55] | < 100 nM | < 100 nM |
| N#Cc1cccc(C#N)c1-c1c(-c2cccc(-c3ccc(C(=O)O)cc3Cl)c2)n(S(=O)(=O)c2ccc(C(F)F)cc2)c2ccccc12 [11/56] | < 100 nM | < 100 nM |
| N#Cc1sccc1-c1c(-c2cccc(-c3ccc(C(=O)O)cc3Cl)c2)n(S(=O)(=O)c2ccc(C(F)F)nc2)c2ccc(F)cc12 [11/57] | < 100 nM | < 100 nM |
| N#Cc1cccc(C#N)c1-c1c(-c2cccc(C34CCC(C(=O)O)(CC3)CC4)c2)n(S(=O)(=O)c2ccc(C(F)F)cc2)c2ccc(F)cc12 [11/58] | < 100 nM | < 100 nM |
| CC(O)(C(=O)O)c1ccc(-c2cccc(-c3c(-c4c(C#N)cccc4C#N)c4cc(F)ccc4n3S(=O)(=O)c3ccc(C(F)F)cc3)c2)cc1 (stereo not drawn) [11/59] | < 100 nM | < 100 nM |
| N#Cc1cccc(C#N)c1-c1c(-c2cccc([C@H]3CC[C@@H](C(=O)O)CC3)c2)n(S(=O)(=O)c2ccc(C(F)F)cc2)c2ccc(F)cc12 [11/61] | 100 to 1000 nM | < 100 nM |
| N#Cc1cccc(C#N)c1-c1c(-c2cccc(-c3ccc(C(=O)O)cc3F)c2)n(S(=O)(=O)C2CCC(C(F)(F)F)CC2)c2ccc(F)cc12 (stereo not drawn) [11/64] | 100 to 1000 nM | < 100 nM |
| N#Cc1cccc(C#N)c1-c1c(-c2cccc(-c3ccc(C(=O)O)cc3Cl)c2)n(S(=O)(=O)C2CC3CCC2C3)c2ccc(F)cc12 (stereo not drawn) [11/66] | 100 to 1000 nM | < 100 nM |
| N#Cc1cncc(C#N)c1-c1c(-c2cccc(-c3ccc(C(=O)O)cc3Cl)c2)n(S(=O)(=O)c2ccc(C(F)F)cc2)c2ccc(F)cc12 [11/67] | 100 to 1000 nM | < 100 nM |
| Cn1ccc(-c2c(-c3cccc(-c4ccc(C(=O)O)cc4Cl)c3)n(S(=O)(=O)c3ccc(C(F)F)cc3)c3ccc(F)cc23)c1C#N [11/68] | < 100 nM | < 100 nM |
| O=C(O)C1CC1c1cccc(-c2c(-c3c(Cl)cccc3Cl)c3cc(F)ccc3n2S(=O)(=O)c2ccc(C(F)F)cc2)c1 (stereo not drawn) [11/69] | < 100 nM | < 100 nM |
| Cc1ccc(S(=O)(=O)n2c(-c3cccc(-c4ccc(C(=O)O)c(C)c4Cl)c3)c(-c3ccsc3C#N)c3cc(F)ccc32)cc1 [12/1] | 100 to 1000 nM | < 100 nM |
